Test results taken from patent publication US8354436B2 (4SC Discovery GmbH, priority 2011, dated 2013).
pIC50: −log10 of the molar value.

Each compound was assayed on IFN-γ (assay: IFN-γ production by PHA-stimulated human PBMC (OptEIA human IFN-g ELISA)). Conditions: PHA-stimulated human PBMC, 48 hours; column C; read-out: IC50 (IFNγ).
Type: cell-based
Experimental: Analysis of Proliferation of and Cytokine Production by Human PBMC Stimulated with PHA
Peripheral blood mononuclear cells (PBMC) from healthy human donors were purified using Accuspin™ System-Histopaque-1077 (Sigma) according to the protocol recommended by the manufacturer. Purified PBMC were then washed twice with phosphate-buffered saline (PBS) and resuspended in RPMI1640 culture medium supplemented with 10% dialyzed heat inactivated fetal calf serum, 1.5 mM L-glutamine, 100 U penicillin/ml, and […] (all from PAN Biotech, Aidenbach, Germany). For stimulation, PBMC were seeded at 1×10^5 cells/well, activated with 2 μg/ml phytohaemagglutinin (PHA, Sigma) and incubated with the test compounds for 48 hours. IL-17A, IL-17F and INF-γ were then determined in the culture supernatant using a Luminex BioPlex system, following the manufacturer's instructions (BioRad, Munich, Germany). For screening, compounds were used at 10, 1, 0.1 and 0.01 μM. To determine the IC50, compounds were titrated semilogarithmically.
Cytokines were determined in the aforementioned culture supernatant using the following methods: IL-17AA/AF was measured using the Luminex BioPlex system (BioRad, Munich, Germany); IL-17AA using the human homodimer IL-17A ELISA Ready Set Go Kit from eBioscience (Frankfurt, Germany); IL-17FF using the human IL-17F ELI-Pair from Hölzel DiagnosticaGmBH (Köln, Germany); and IFN-γ using the OptEIA human IFN-g ELISA from BD Bioscience (Heidelberg, Germany), all following the manufacturer's instructions.
For `COC(=O)c1c(-c2c(F)cccc2Cl)noc1-c1cnn(CCN2CCCCC2)c1C(F)(F)F` [Example I-104, methyl 3-(2-chloro-6-fluorophenyl)-5-(1-(2-(piperidin-1-yl)ethyl)-5-(trifluoromethyl)-1H-pyrazol-4-yl)isoxazole-4-carboxylate], the pIC50 was 5.00 to 6.00.
In the case of `COC(=O)c1c(-c2c(F)cccc2Cl)noc1-c1cnn(-c2ccccc2Br)c1C(F)(F)F` [Example I-80, methyl 5-(1-(2-bromophenyl)-5-(trifluoromethyl)-1H-pyrazol-4-yl)-3-(2-chloro-6-fluorophenyl)isoxazole-4-carboxylate], the pIC50 was 5.00 to 6.00.
With `CNC(=O)c1c(-c2ccc(Cl)cc2)noc1-c1cnn(-c2cccc(F)c2)c1C(F)(F)F` [Example I-75, 3-(4-chlorophenyl)-5-(1-(3-fluorophenyl)-5-(trifluoromethyl)-1H-pyrazol-4-yl)-N-methylisoxazole-4-carboxamide] the pIC50 was 5.00 to 6.00.
For `CCOC(=O)c1c(-c2onc(-c3c(F)cccc3Cl)c2C(=O)OC)cnn1-c1ccccc1OC` [Example I-40], the pIC50 was 5.00 to 6.00.
In the case of `CCOC(=O)c1c(-c2onc(-c3c(F)cccc3Cl)c2C(=O)OC)cnn1-c1ccc(OC(F)(F)F)cc1` [Example I-45, methyl 3-(2-chloro-6-fluoro-phenyl)-5-(5-(ethoxycarbonyl)-1-(4-(trifluoromethoxy)phenyl)1H-pyrazol-4-yl)isoxazole-4-carboxylate], the pIC50 was 5.00 to 6.00.
`Fc1ccc(-n2ncc(-c3cc(-c4c(F)cccc4Cl)no3)c2C(F)(F)F)cc1` [Example I-25, 3-(2-chloro-6-fluorophenyl)-5-(1-(4-fluorophenyl)-5-(trifluoromethyl)-1H-pyrazol-4-yl)isoxazole] showed a pIC50 of 5.00 to 6.00.
`CC(C)Cn1ncc(-c2onc(-c3c(F)cccc3Cl)c2C(=O)O)c1C(F)(F)F` [IB-19, 3-(2-chloro-6-fluorophenyl)-5-(1-isobutyl-5-(trifluoromethyl)-1H-pyrazol-4-yl)isoxazole-4-carboxylic acid] showed a pIC50 of 5.00 to 6.00.
In the case of `COC(=O)c1c(-c2c(F)cccc2Cl)noc1-c1cnn(CCO)c1C(F)(F)F` [Example I-83, methyl 3-(2-chloro-6-fluorophenyl)-5-(1-(2-hydroxyethyl)-5-(trifluoromethyl)-1H-pyrazol-4-yl)isoxazole-4-carboxylate], the pIC50 was 5.00 to 6.00.
In the case of `CCOC(=O)c1c(-c2ccc(Cl)c(Cl)c2)noc1-c1cnn(-c2cccc(F)c2)c1C(F)(F)F` [Example I-99, ethyl 3-(3,4-dichlorophenyl)-5-(1-(3-fluorophenyl)-5-(trifluoromethyl)-1H-pyrazol-4-yl)isoxazole-4-carboxylate], the pIC50 was 5.00 to 6.00.
`CC(=O)NNC(=O)c1c(-c2c(F)cccc2Cl)noc1-c1cnn(-c2ccccc2F)c1C(F)(F)F` [Example I-142, N′-acetyl-3-(2-chloro-6-fluorophenyl)-5-(1-(2-fluorophenyl)-5-(trifluoromethyl)-1H-pyrazol-4-yl)isoxazole-4-carbohydrazide] showed a pIC50 of 5.00 to 6.00.
With `O=C(O)c1c(-c2cccc(F)c2)noc1-c1cnn(-c2cccc(F)c2)c1C(F)(F)F` [Example I-114, 3-(3-fluorophenyl)-5-(1-(3-fluorophenyl)-5-(trifluoromethyl)-1H-pyrazol-4-yl)isoxazole-4-carboxylic acid] the pIC50 was 5.00 to 6.00.
Work on `CCOC(=O)c1c(-c2onc(-c3c(F)cccc3Cl)c2C(=O)OC)cnn1-c1ccsc1C(=O)OC` [Example I-15, methyl 3-(2-chloro-6-fluorophenyl)-5-(5-(ethoxycarbonyl)-1-(2-(methoxycarbonyl)thiophen-3-yl)-1H-pyrazol-4-yl)isoxazole-4-carboxylate] yielded a pIC50 of 5.00 to 6.00.
`COC(=O)c1c(-c2c(F)cccc2Cl)noc1-c1cnn(-c2ccc(OC)cc2)c1C(F)(F)F` [Example I-79] gave a pIC50 of 5.00 to 6.00.
With `COc1ccccc1-n1ncc(-c2onc(-c3c(F)cccc3Cl)c2Br)c1C(F)(F)F` [IB-23, 4-bromo-3-(2-chloro-6-fluorophenyl)-5-(1-(2-methoxyphenyl)-5-(trifluoromethyl)-1H-pyrazol-4-yl)isoxazole] the pIC50 was 5.00 to 6.00.
`COC(=O)c1c(-c2c(F)cccc2Cl)noc1-c1cnn(Cc2ccccn2)c1C(F)(F)F` [Example I-101, methyl 3-(2-chloro-6-fluorophenyl)-5-(1-(pyridin-2-ylmethyl)-5-(trifluoromethyl)-1H-pyrazol-4-yl)isoxazole-4-carboxylate] gave a pIC50 of 5.00 to 6.00.
`Fc1ccccc1-n1ncc(-c2onc(-c3c(F)cccc3Cl)c2C(=S)N2CCOCC2)c1C(F)(F)F` [Example I-123, (3-(2-chloro-6-fluorophenyl)-5-(1-(2-fluorophenyl)-5-(trifluoromethyl)-1H-pyrazol-4-yl)isoxazol-4-yl)(morpholino)meth-anethione] showed a pIC50 of 5.00 to 6.00.
Compound `CCOC(=O)c1c(-c2onc(-c3c(F)cccc3Cl)c2C(=O)OC)cnn1-c1c(F)c(F)cc(F)c1F` [Example I-38, methyl 3-(2-chloro-6-fluorophenyl)-5-(5(ethoxycarbonyl)-1-(2,3,5,6-tetrafluorophenyl)-1H-pyrazol-4-yl)isoxazole-4-carboxylate] has a pIC50 of 5.00 to 6.00.

Same assay, conditions: human PBMC, 2 μg/ml PHA, 48 hours; read-out: C: IC50 (IFNγ)
Compound `Fc1cccc(Cl)c1-c1noc(-c2cnn(-c3ccccc3Cl)c2C(F)(F)F)c1-c1nnco1` [Example B-14, 2-(3-(2-chloro-6-fluorophenyl)-5-(1-(2-chlorophenyl)-5-(trifluoromethyl)-1H-pyrazol-4-yl)isoxazol-4-yl)-1,3,4-oxadiazole] has a pIC50 of 5.00 to 6.00.

What follows are compounds tested on PBMC from healthy human donors (assay: T cell proliferation assay (PHA-stimulated human PBMC, BrdU ELISA)). Conditions: PHA-stimulated human PBMC, 48 hours, column D, read-out: IC50 (Tcell proliferation).
Type: cell-based
Experimental: Cell proliferation was analysed using the BrdU based cell proliferation ELISA from Roche (Mannheim, Germany) according to the manufacturer's instructions. T Cell Proliferation Assay Peripheral blood mononuclear cells (PBMC) from healthy human donors were isolated by centrifugation over Ficoll-Hypaque (Sigma-Aldrich, Germany) according to manufacturer's instructions. Purified PBMC were washed twice with PBS and resuspended in RPMI1640 culture medium supplemented with 10% dialyzed heat inactivated fetal calf serum, 1.5 mM L-glutamine, 100 U penicillin/ml, and […] (all from PAN Biotech, Aidenbach, Germany). For stimulation, PBMC were seeded at 1×10^5 cells/well, activated with 2 μg/ml phytohaemagglutinin (PHA, Sigma) and incubated with the test compound. After 48 hours proliferation was measured using the BrdU based cell proliferation ELISA from Roche (Mannheim, Germany) according to the manual.
`COC(=O)c1c(-c2c(F)cccc2Cl)noc1-c1cnn(-c2cccc(C(F)(F)F)c2)c1C(F)(F)F` [Example I-82, methyl 3-(2-chloro-6-fluorophenyl)-5-(5-(trifluoromethyl)-1-(3-(trifluoromethyl)phenyl)-1H-pyrazol-4-yl)isoxazole-4-carboxylate] showed a pIC50 of 5.00 to 6.00.
With `CCOC(=O)c1c(-c2onc(-c3c(F)cccc3Cl)c2C(=O)OC)cnn1-c1ccccc1` [Example I-34, methyl 3-(2-chloro-6-fluorophenyl)-5-(5-(ethoxycarbonyl)-1-phenyl-1Hpyrazol-4-yl)isoxazole-4-carboxylate] the pIC50 was 5.00 to 6.00.
With `COC(=O)c1c(-c2c(F)cccc2Cl)noc1-c1cnn(-c2cccc(Cl)c2Cl)c1C(F)(F)F` [Example I-4, methyl 3-(2-chloro-6-fluorophenyl)-5-(1-(2,3-dichlorophenyl)-5-(trifluoromethyl)-1H-pyrazol-4-yl)isoxazole-4-carboxylate] the pIC50 was 5.00 to 6.00.
In the case of `COC(=O)c1c(-c2c(F)cccc2Cl)noc1-c1cnn(-c2onc(-c3ccc(Cl)cc3)c2C(=O)OC)c1C(F)(F)F` [Example I-131, methyl 3-(2-chloro-6-fluorophenyl)-5-{[1-(4-methoxycarbonyl-3-(4-chlorophenyl)isoxazol-5-yl)-5-trifluoromethyl-1H-pyrazol-4-yl]}-isoxazole-4-carboxylate], the pIC50 was 5.00 to 6.00.
Compound `O=C(O)c1c(-c2c(F)cccc2Cl)noc1-c1cnn(Cc2ccccc2F)c1C(F)(F)F` [IB-86, 3-(2-chloro-6-fluorophenyl)-5-(1-(2-fluorobenzyl)-5-(trifluoromethyl)-1H-pyrazol-4-yl)isoxazole-4-carboxylic acid] has a pIC50 of 5.00 to 6.00.
For `O=C(O)c1c(-c2ccccc2F)noc1-c1cnn(-c2cccc(F)c2)c1C(F)(F)F` [Example I-91, 3-(2-fluorophenyl)-5-(1-(3-fluorophenyl)-5-(trifluoromethyl)-1H-pyrazol-4-yl)isoxazole-4-carboxylic acid], the pIC50 was 5.00 to 6.00.
Compound `COC(=O)c1c(-c2c(F)cccc2Cl)noc1-c1cnn(-c2ccc(OC(F)(F)F)cc2)c1C(F)(F)F` [Example I-33, methyl 3-(2-chloro-6-fluorophenyl)-5-(1-(4-(trifluoromethoxy)phenyl)-5-(trifluoromethyl)-1H-pyrazol-4-yl)isoxazole-4-carboxylate] has a pIC50 of 5.00 to 6.00.
Compound `COC(=O)c1c(-c2c(F)cccc2Cl)noc1-c1cnn(-c2ncc(C(F)(F)F)cc2Cl)c1C(F)(F)F` [Example I-87] has a pIC50 of 5.00 to 6.00.
For `NNC(=O)c1c(-c2cccc(F)c2)noc1-c1cnn(-c2cccc(F)c2)c1C(F)(F)F` [Example I-134, 3-(3-fluorophenyl)-5-(1-(3-fluorophenyl)-5-(trifluoromethyl)-1H-pyrazol-4-yl)isoxazole-4-carbohydrazide], the pIC50 was 5.00 to 6.00.
`COC(=O)c1c(-c2c(F)cccc2Cl)noc1-c1cnn(-c2nccc(C(F)(F)F)n2)c1C(F)(F)F` [Example I-67, methyl 3-(2-chloro-6-fluorophenyl)-5-(5-(trifluoromethyl)-1-(4-(trifluoromethyl)pyrimidin-2-yl)-1H-pyrazol-4-yl)isoxazole-4-carboxylate] showed a pIC50 of 6.00 to 7.00.
